Source: ChEMBL document CHEMBL5214932, “A closer look at N2,6-substituted 1,3,5-triazine-2,4-diamines: Advances in synthesis and biological activities” (Eur J Med Chem, 2022)

Tests used:
[1] = test system: Human immunodeficiency virus 1; test: Antiviral activity against wild type HIV1 IIIB assessed as viral growth inhibition measured after 5 days by MTT assay; type: functional, organism-based; details: Human immunodeficiency virus 1, IIIB, 120 h
[2] = Cytotoxicity against human MT2 cells assessed as cell growth inhibition by MTT assay; type: toxicity, cell-based
[3] = test system: MCF-10A; test: Antiproliferative activity against human MCF-10A cells assessed as cell growth inhibition measured after 72 hrs by MTT assay; type: functional, cell-based
[4] = test system: MCF7; test: Antiproliferative activity against human MCF7 cells assessed as cell growth inhibition measured after 72 hrs by MTT assay; type: functional, cell-based; details: MCF7, 72 h
[5] = test system: SK-BR-3; test: Antiproliferative activity against human SK-BR-3 cells assessed as cell growth inhibition measured after 72 hrs by MTT assay; type: functional, cell-based; details: SK-BR-3, 72 h
[6] = test system: MDA-MB-231; test: Antiproliferative activity against human MDA-MB-231 cells assessed as cell growth inhibition measured after 72 hrs by MTT assay; type: functional, cell-based; details: MDA-MB-231, 72 h
[7] = test system: DU-145; test: Antiproliferative activity against human DU-145 cells assessed as cell growth inhibition measured after 72 hrs by MTT assay; type: functional, cell-based; details: DU-145, 72 h

Row | IC50 [4] | IC50 [5] | IC50 [6] | IC50 [7] | SMILES | IC50 [1] | IC50 [2] | IC50 [3]
1 | – | – | – | – | N#C/C=C/c1cccc(Oc2cc(Nc3nc(N)nc(C4CC4)n3)ccc2C#N)c1 | 43 nM | 1700 nM | –
2 | > 20000 nM | 290 nM | 60 nM | 670 nM | CN(C)c1ccc(-c2nc(N)nc(Nc3ccccc3F)n2)cc1 | – | – | > 25000 nM
